Test results taken from PMC12736535, “Generation and Characterization of Novel Contilisant+Tubastatin a Multitarget Small Molecules Against Glioblastoma” (Pharmaceutics, 2025).

Key:
recombinant hMAO-A = target: T1, recombinant hMAO-A (Homo sapiens, UniProt P21397); experiment: MAO-A inhibition assay; assay type: biochemical; details: read-out: MAO inhibition MAO-A %
T1 sequence (P21397 1-527): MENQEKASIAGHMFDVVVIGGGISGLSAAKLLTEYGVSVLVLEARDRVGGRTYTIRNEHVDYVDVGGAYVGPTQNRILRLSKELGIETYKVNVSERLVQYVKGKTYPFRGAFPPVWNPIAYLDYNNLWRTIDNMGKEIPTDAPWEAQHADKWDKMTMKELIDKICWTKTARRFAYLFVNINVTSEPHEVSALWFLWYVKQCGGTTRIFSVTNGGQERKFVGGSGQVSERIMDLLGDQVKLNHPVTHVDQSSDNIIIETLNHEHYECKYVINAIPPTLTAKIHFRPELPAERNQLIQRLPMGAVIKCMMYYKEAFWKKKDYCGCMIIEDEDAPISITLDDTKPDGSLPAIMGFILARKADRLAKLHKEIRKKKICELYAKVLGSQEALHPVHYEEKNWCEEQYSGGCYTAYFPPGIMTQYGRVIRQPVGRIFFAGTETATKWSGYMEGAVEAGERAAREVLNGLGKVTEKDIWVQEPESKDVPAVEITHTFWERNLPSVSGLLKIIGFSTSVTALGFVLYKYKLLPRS
Procedure: For MAO inhibition studies, the enzyme solution (0.5 U/mL recombinant hMAO-A or 1.5 U/mL recombinant hMAO-B) was incubated with an inhibitor solution containing 10 µM of the compounds for 30 min at 37 °C. Next, horseradish peroxidase (200 U/mL), Ampliflu Red (20 mM) and tyramine hydrochloride (100 mM) (Sigma-Aldrich) were added, and absorbance was measured at 570 nm every 5 min for 30 min. The percentage of inhibition was calculated from the absorbance values.

U87 glioblastoma cells = experiment: MTT cell viability, U87; assay type: cell-based; details: Homo sapiens, 72 h, read-out: IC50 U87 (GBM)
Procedure: U87-MG, U251-MG and NCI-H1299 cells were purchased from ATCC, while MKN45 was obtained from the Leibniz Institute DSMZ-German Collection of Microorganisms and Cell Cultures and the RWP1 cell line was kindly provided by Dr. Francisco Real. Cells were cultured in DMEM or RPMI (Gibco, Waltham, MA, USA) supplemented with 10% FBS, 100 U/mL penicillin and streptomycin and 2 mM L-Glutamine. Patient-derived glioma neural stem cells (GNS166 and GNS179) were kindly provided by Dr. Steve Pollard. These cells were cultured in adhesion plates treated with laminin A in DMEM/F12 media (Gibco) supplemented with N2 (Gibco), B27 (Gibco), D-(+)-Glucose solution 45% (Sigma-Aldrich, Burlington, MA, USA), basic Fibroblast Growth Factor (Gibco) and epidermal growth factor (Sigma-Aldrich). Normal human astrocytes (NHAs) were purchased from ScienCell and cultured using an astrocyte medium kit (ScienCell, San Diego, CA, USA) supplemented with FBS and Astrocyte Growth Supplement (AGS). All cells were maintained at standard conditions of 37 °C, 95% humidity, 21% O2 and 5% CO2, and cultures were regularly tested for Mycoplasma.
Cells were seeded in 96-well plates at a density of 1.5 × 10^3 or 5 × 10^3 cells/well (conventional cell lines or GNS and NHAs, respectively) and incubated overnight. Next, cells were treated with increasing concentrations of the compounds, and after 72 h, they were incubated for 3.5 h with MTT. Then, absorbance at 570 nm was measured. GraphPad Prism software version 10.4.1 was used to calculate the IC50 values.

Structure (SMILES) | inhibition at 1 µM (recombinant hMAO-A) [%] | inhibition at 10 µM (recombinant hMAO-A) [%] | IC50 (U87 glioblastoma cells) [µM]
C#CCN(C)CCCOc1ccc(Cl)cc1Cl [Clorgiline, reference compound] | 100 | 98 | 
CCCN(CCC)NC(=O)c1ccc(S(=O)(=O)n2ccc3cc(OC)ccc32)cc1 [FRB21] |  |  | > 100
CCCNNC(=O)c1ccc(S(=O)(=O)n2ccc3cc(OC)ccc32)cc1 [FRB24] |  |  | 7.1
